US9227955B2, “Compound having angiogenesis inhibitory activity, method for preparing same, and pharmaceutical composition comprising same” (Boryung Pharmaceutical Co., Ltd., priority 2011, dated 2016)
Marks after values point to notes of the source that are not given here.

Test system: not listed separately
Experiment: Cell viability MTS assay (cytotoxicity)
Assay type: cell-based
Conditions: human; A-431 cells, 48 hrs incubation; read-out: IC50, MTS assay for cytotoxicity against A-431
Method: A-431 ([…], human, ATCC CRL-1555™) cells grown in DMEM (Dulbeco's Modified Eagle's Medium, Gibco #11885) were seeded at a density of 1×10^4 cells/well into 96-well plates and incubated at 37° C. for 18 hrs under the supply of 5% CO2 until the cells stably adhered to the bottom. […] After incubation for 48 hrs in the presence of the test compound, the cells were assayed for viability.
The cells in each well was added with 21 μl of a mixture of 20:1 (v/v) of an MTS solution [(3-(4,5-dimethylthiazol-2-yl)-5-(3-carboxymethoxyphenyl)-2-(4-sulfophenyl)-2H-tetrazolium, Promega, Cat#65421; 2 mg/ml] and a PMS solution [Phenazine methosulfate, Sigma #P9625; 1 mg/ml], and incubated for 2 hrs, followed by measuring absorbance at 490 nm on a microplate reader (Molecular device, spectraMax M2). Relative to the control (media), viability by drug concentration was determined from the measurements of formazan, and the results are given in Table 2, below.

Structure (SMILES)	IC50 at 48 h [µM]
O=C(Nc1cccc(Cl)c1)c1cccnc1Nc1ccc(Oc2ccccc2)cc1 [Compound 104, N-(3-Chlorophenyl)-2-(4-phenoxyanilino)nicotinamide]	28.6
O=C(Nc1ccc(Oc2ccccc2)cc1)c1cccnc1NC1CCN(Cc2ccccc2)CC1 [Compound 110, 2-(1-Benzylpiperidin-4-ylamino)-N-(4-phenoxyphenyl)nicotinamide]	22.2
O=C(Nc1ccc(Oc2ccccc2)cc1)c1cccnc1Nc1ccc(Oc2ccccc2)cc1 [Compound 111, 2-(4-Phenoxyanilino)-N-(4-phenoxyphenyl)nicotinamide]	135
CC1(C)CNc2cc(NC(=O)c3cccnc3NC3CCN(Cc4ccccc4)CC3)ccc21 [Compound 117, 2-(1-Benzylpiperidin-4-ylamino)-N-(3,3-dimethyl-2,3-dihydro-1H-indol-6-yl)nicotinamide]	91.1
CC1(C)CC(Nc2ncccc2C(=O)Nc2cccc(Cl)c2)CC(C)(C)N1 [Compound 201, N-(3-Chlorophenyl)-2-(2,2,6,6-tetramethylpiperidin-4-ylamino)nicotinamide]	54.5
CC(C)(C)OC(=O)N1CCC(Nc2ncccc2C(=O)Nc2cccc(Cl)c2)CC1 [Compound 208, N-(3-Chlorophenyl)-2-(1-tert-butoxycarbamoylpiperidin-4-ylamino)nicotinamide]	86.1
O=C(Nc1cccc(Cl)c1)c1cccnc1NN1CCN(CCO)CC1 [Compound 241, N-(3-Chlorophenyl)-2-[4-(2-hydroxyethyl)piperazin-1-ylamino)nicotinamide]	164
CC1(C)CC(Nc2ncccc2C(=O)Nc2cccc(Cl)c2)CC(C)(C)N1CCO [Compound 242, N-(3-Chlorophenyl)-2-(1-(2-hydroxyethyl)-2,2,6,6-tetramethylpiperidin-4-ylamino)nicotinamide]	81.9
C=CCN1CCC(Nc2ncccc2C(=O)Nc2cccc(Cl)c2)CC1 [Compound 243]	170
CCN(CC)CCN1CCC(Nc2ncccc2C(=O)Nc2cccc(Cl)c2)CC1 [Compound 244, N-(3-chlorophenyl)-2-[1-(2-N,N-diethylamino-ethyl)piperidin-4-ylamino]nicotinamide]	94.6
O=C(Nc1cccc(Cl)c1)c1cccnc1NC1CCN(C(C(=O)O)C(=O)O)CC1 [Compound 246, 2-(4-(3-(3-Chlorophenylcarbamoyl)pyridin-2-ylamino)piperidin-1-yl)maloic acid]	101
O=C(Nc1cccc(Cl)c1)c1cccnc1NC1CCN(Cc2cccnc2)CC1 [Compound 249, N-(3-chlorophenyl)-2-[1-(pyridin-3-ylmethyl)piperidin-4-ylamino]nicotinamide]	102
O=C(Nc1cccc(Cl)c1)c1cccnc1N[C@@H]1CCCN(Cc2ccccc2)C1 [Compound 267, (R)-2-(1-benzylpiperidin-3-ylamino)-N-(3-chlorophenyl)nicotinamide]	20.9
O=C(Nc1cccc(Cl)c1)c1cccnc1N[C@@H]1CCCNC1 [Compound 269, (R)—N-(3-chlorophenyl)-2-(3-piperidylamino)nicotinamide]	88.9
O=C(Nc1cccc(Cl)c1)c1cccnc1N[C@H]1CCCN(Cc2ccccc2)C1 [Compound 273, (S)-2-(1-benzylpiperidin-3-ylamino)-N-(3-chlorophenyl)nicotinamide]	40.9
O=C(Nc1cccc(Cl)c1)c1cccnc1N[C@H]1CCCN(CCO)C1 [Compound 274, (S)—N-(3-chlorophenyl)-2-[1-(2-hydroxyethyl)piperidin-3-ylamino]nicotinamide]	111
O=C(Nc1cccc(Cl)c1)c1cccnc1N[C@H]1CCCNC1 [Compound 275, (S)—N-(3-chlorophenyl)-2-(3-piperidylamino)nicotinamide]	94.6
O=C(Nc1cccc(Cl)c1)c1cccnc1SC1CCN(Cc2ccccc2)CC1 [Compound 290, 2-(1-Benzylpiperidin-4-ylsulfanyl)-N-(3-chlorophenyl)nicotinamide]	54.8
O=C(Nc1cccc(Cl)c1)c1ccc(Cl)nc1NC1CCN(Cc2ccccc2)CC1 [Compound 301, 2-(1-Benzylpiperidin-4-ylamino)-6-chloro-N-(3-chlorophenyl)nicotinamide]	67.6
O=C(Nc1cccc(Cl)c1)c1cc(F)c(Cl)nc1NC1CCN(Cc2ccccc2)CC1 [Compound 302, 2-(1-benzylpiperidin-4-ylamino)-6-chloro-N-(3-chlorophenyl)-5-fluoronicotinamide]	38.1
O=C(Nc1cccc(Cl)c1)c1ccc(Cl)nc1NC1CCN(CCO)CC1 [Compound 311]	62.3
O=C(Nc1cccc(Cl)c1)c1cc(F)c(Cl)nc1NC1CCN(CCO)CC1 [Compound 312, 6-chloro-N-(3-chlorophenyl)-5-fluoro-2-[1-(2-hydroxyethyl)piperidin-4-ylamino]nicotinamide]	20.7
O=C(NC(Cc1ccccc1)c1ccccc1)c1cccnc1NC1CCN(Cc2ccccc2)CC1 (centres unmarked) [Compound 426, 2-(1-Benzylpiperidin-4-ylamino)-N-(1,2-diphenylethyl)nicotinamide]	39.7
Cc1cnc(NC(=O)c2cccnc2NC2CCN(Cc3ccccc3)CC2)s1 [Compound 428, 2-(1-Benzylpiperidin-4-ylamino)-N-(5-methylthiazol-2-yl)nicotinamide]	125
CCCCC(CC)CNC(=O)c1cccnc1NC1CCN(Cc2ccccc2)CC1 (centres unmarked) [Compound 436, 2-(1-Benzylpiperidin-4-ylamino)-N-(2-ethylhexyl)nicotinamide]	34
COc1ccc(NC(=O)c2cccnc2NC2CCN(Cc3ccccc3)CC2)cc1OC [Compound 443, 2-(1-Benzylpiperidin-4-ylamino)-N-(3,4-dimethoxyphenyl)nicotinamide]	140
CCCCC(CC)CNC(=O)c1ccc(Cl)nc1NC1CCN(CCO)CC1 (centres unmarked) [Compound 515, 6-Chloro-N-(2-ethylhexyl)-2-[1-(2-hydroxyethyl)piperidin-4-ylamino]nicotinamide]	23.8
CCCCC(CC)CNC(=O)c1cccnc1NC1CC(C)(C)NC(C)(C)C1 (centres unmarked) [Compound 517, N-(2-ethylhexyl)-2-(2,2,6,6-tetramethylpiperidin-4-ylamino)nicotinamide]	50.7

Test system: HUVECs (human umbelical vein endothelial cells)
Experiment: Transwell assay, VEGF-induced cell migration in HUVECs
Assay type: cell-based
Conditions: 25 μM, 10 ng/ml VEGF 24 hrs, n=3
Method: To examine the inhibitory effect of the compounds obtained in the Examples on VEGF (Vascular endothelial growth factor)-induced cell migration in HUVECs (human umbelical vein endothelial cells), a transwell assay was performed as follows.
HUVECs, provided from ATCC (American Type Culture Collection), were incubated in EGM-2 (Endothelial growth Medium-2 Medium) including 10% FBS, penicillin (100 unit/ml) and 100 μg/ml streptomycin sulfate plus various growth factors at 37° C. in an atmosphere of 5% CO2. After the change of the medium with growth factor-free EBM-2 (Endothelial Basal Medium-2 Medium), the cells were subjected to transwell assay.
After for 24 hours, the cells were fixed for 1 min with ethanol and were stained with a dye. Cell migration was evaluated by counting cells which moved through the pores.
In addition, cells were treated with Compound No. 250 (Example 26) at various concentrations given in Table 3, and assayed for cell migration, as conducted with Compounds 103, 110, 218, 273, 275, 276, 290, 312, 428, 442, and 509. The results were compared with those obtained after non-treatment (no treat) or treatment with 10 ng/mL VEGF.
Results were expressed as average numbers (n=3) of HUVECs which moved cross the membrane. Test results are summarized in Table 3 for compounds 103, 110, 218, 273, 275, 276, 290, 312, 428, 442, and 509, and in Table 4 for compound 250.

Structure (SMILES)	No. of migration cells/field
O=C(Nc1ccc(Oc2ccccc2)cc1)c1cccnc1NC1CCN(Cc2ccccc2)CC1 [Compound 110, 2-(1-Benzylpiperidin-4-ylamino)-N-(4-phenoxyphenyl)nicotinamide]	10*** cells/field
O=C(Nc1cccc(Cl)c1)c1cccnc1NC1CCN(CCO)CC1 [Compound 218, N-(3-Chlorophenyl)-2-[1-(2-hydroxyethyl)piperidin-4-ylamino]nicotinamide]	7.5*** cells/field
Cc1cnc(NC(=O)c2cccnc2NC2CCN(Cc3ccccc3)CC2)s1 [Compound 428, 2-(1-Benzylpiperidin-4-ylamino)-N-(5-methylthiazol-2-yl)nicotinamide]	14.5*** cells/field
COC(=O)c1c(NC(=O)c2cccnc2NC2CCN(Cc3ccccc3)CC2)sc2c1CCNC2 [Compound 442, 2-{[2-(1-Benzylpiperidin-4-ylamino)pyridine-3-carbonyl]amino}-4,5,6,7-tetrahydro-thieno[2,3-c]pyridine-3-carboxylic acid methyl ester]	15*** cells/field
COC(=O)c1c(NC(=O)c2cccnc2NC2CCCN(Cc3ccccc3)C2)sc2c1CCNC2 (centres unmarked) [Compound 509, 2-{[2-(1-benzylpiperidin-3-ylamino)pyridine-3-carbonyl]amino}-4,5,6,7-tetrahydrothieno[2,3-c]pyridine-3-carboxylic acid methyl ester]	7*** cells/field

Same assay, conditions: 50 μM, 10 ng/ml VEGF 24 hrs, n=3

Structure (SMILES)	No. of migration cells/field
O=C(Nc1cccc(Cl)c1)c1cccnc1N[C@H]1CCCN(Cc2ccccc2)C1 [Compound 273, (S)-2-(1-benzylpiperidin-3-ylamino)-N-(3-chlorophenyl)nicotinamide]	12*** cells/field
O=C(Nc1cccc(Cl)c1)c1cccnc1N[C@H]1CCCNC1 [Compound 275, (S)—N-(3-chlorophenyl)-2-(3-piperidylamino)nicotinamide]	11*** cells/field
CC(C)(C)OC(=O)N1CCC[C@H](Nc2ncccc2C(=O)Nc2cccc(Cl)c2)C1 [Compound 276, (S)—N-(3-chlorophenyl)-2-(1-tert-butoxycarbamoylpiperidin-3-ylamino)nicotinamide]	12.5*** cells/field
O=C(Nc1cccc(Cl)c1)c1cccnc1SC1CCN(Cc2ccccc2)CC1 [Compound 290, 2-(1-Benzylpiperidin-4-ylsulfanyl)-N-(3-chlorophenyl)nicotinamide]	14.5*** cells/field
O=C(Nc1cccc(Cl)c1)c1cc(F)c(Cl)nc1NC1CCN(CCO)CC1 [Compound 312, 6-chloro-N-(3-chlorophenyl)-5-fluoro-2-[1-(2-hydroxyethyl)piperidin-4-ylamino]nicotinamide]	14*** cells/field
